According to patent US20250230193A1, “CYCLIC COMPOUND HAVING SELECTIVE KRAS INHIBITORY EFFECT ON HRAS AND NRAS” (CHUGAI SEIYAKU KABUSHIKI KAISHA, priority 2022, published 2025):
Where a SMILES comes first, the peptide text is derived from it. Bridges are numbered along the chain shown (N, C = ends). [ ]: non-standard residue; d: D form. The star is where a group is joined. hPhe(3,5-F2-4-CF3) = N[C@@H](CCc1cc(F)c(C(F)(F)F)c(F)c1)C(=O)O; hPhe(3-Cl-4-CF3) = N[C@@H](CCc1ccc(C(F)(F)F)c(Cl)c1)C(=O)O; NPrPhe(4-CF3) = CCCN[C@@H](Cc1ccc(C(F)(F)F)cc1)C(=O)O; Pro(4-spirocPr) = O=C(O)[C@@H]1CC2(CC2)CN1; NMeGly(cPent) = CN[C@H](C(=O)O)C1CCCC1; αMeCha = C[C@](N)(CC1CCCCC1)C(=O)O; NMeD = CN[C@@H](CC(=O)O)C(=O)O; NMeL = CN[C@@H](CC(C)C)C(=O)O; Morpholide = C1CN(*)CCO1; Ac5c = NC1(C(=O)O)CCCC1; Aze = O=C(O)[C@@H]1CCN1; Ac4c = NC1(C(=O)O)CCC1; Sar = CNCC(=O)O

Key:
[1] = target: GDP-bound NRAS wild-type protein (Homo sapiens, UniProt P01111); assay: Binding to NRAS by surface plasmon resonance (SPR), Single Cycle Kinetics; settings: for NRAS/KRAS (ratio of KD value with respect to NRAS to KD value with respect to KRAS): GDP-bound NRAS wild-type vs GDP-bound KRAS wild-type
[2] = target: GDP-bound HRAS wild-type protein (Homo sapiens, UniProt P01112); assay: Binding to HRAS by surface plasmon resonance (SPR), Single Cycle Kinetics; settings: for HRAS/KRAS (ratio of KD value with respect to HRAS to KD value with respect to KRAS): GDP-bound HRAS wild-type vs GDP-bound KRAS wild-type
Sequence of GDP-bound HRAS wild-type protein (P01112 whole entry): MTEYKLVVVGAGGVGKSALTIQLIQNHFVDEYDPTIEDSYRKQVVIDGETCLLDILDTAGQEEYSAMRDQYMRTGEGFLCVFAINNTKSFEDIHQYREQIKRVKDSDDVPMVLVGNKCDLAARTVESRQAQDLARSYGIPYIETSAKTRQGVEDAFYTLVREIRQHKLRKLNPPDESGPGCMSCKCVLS

Sequence of GDP-bound NRAS wild-type protein (P01111 whole entry): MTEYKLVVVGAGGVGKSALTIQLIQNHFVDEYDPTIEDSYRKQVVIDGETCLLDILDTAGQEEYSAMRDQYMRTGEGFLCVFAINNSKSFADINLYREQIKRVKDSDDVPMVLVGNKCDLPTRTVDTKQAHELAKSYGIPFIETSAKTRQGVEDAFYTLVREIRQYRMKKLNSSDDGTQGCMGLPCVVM

Question: Which “NRAS/KRAS (ratio of KD value with respect to NRAS to KD value with respect to KRAS)” value ([1]; SPR) does the source give for CCC[C@H]1C(=O)N[C@@H]([C@@H](C)CC)C(=O)N2CCC[C@H]2C(=O)N(C)[C@H]2C/C=C\CCN(C2=O)[C@@H](Cc2ccc(C(F)(F)F)cc2)C(=O)N(C)CC(=O)N[C@@H](CCc2ccc(C(F)(F)F)c(OC)c2)C(=O)N2C[C@@H](C)C[C@H]2C(=O)N(C)C2(CCC2)C(=O)N(C)[C@@H](C2CCCC2)C(=O)N(C)[C@H](C(=O)N(C)C)CC(=O)N1C [PP2362] here?
Answer: A (a compound having 10 or more and less than 20 is denoted as A)

Question: And the “HRAS/KRAS (ratio of KD value with respect to HRAS to KD value with respect to KRAS)” value ([2]; SPR)?
Answer: A (a compound having 10 or more and less than 20 is denoted as A)

Question: CCCN1C(=O)CN(C)C(=O)[C@@H]2CCN2C(=O)[C@H]([C@@H](C)CC)NC(=O)[C@H](CC(C)C)N(C)C(=O)C[C@@H](C(=O)N2CCOCC2)N(C)C(=O)[C@H](C2CCCC2)N(C)C(=O)C2(CCCC2)NC(=O)[C@@H]2CC3(CC3)CN2C(=O)[C@H](CCc2ccc(C(F)(F)F)c(Cl)c2)NC(=O)CN(C)C(=O)[C@@H]1Cc1ccc(C(F)(F)F)cc1 [PP0308] ([NMeL]I[Aze][Sar][NPrPhe(4-CF3)][Sar][hPhe(3-Cl-4-CF3)][Pro(4-spirocPr)][Ac5c][NMeGly(cPent)][NMeD]-Morpholide; lactam N-11) was tested. Which “NRAS/KRAS (ratio of KD for GDP-bound NRAS wild-type to KD for KRAS)” value ([1]; SPR) did it give?
Answer: B (a compound having 3 or more and less than 10 is denoted as B)

Question: And the “HRAS/KRAS (ratio of KD for GDP-bound HRAS wild-type to KD for KRAS)” value ([2]; SPR)?
Answer: B (a compound having 3 or more and less than 10 is denoted as B)

Question: With CCO[C@@H]1C[C@H]2C(=O)NC3(CCC3)C(=O)N(C)[C@@H](C3CCCC3)C(=O)N(C)[C@H](C(=O)N(C)C)CC(=O)N(C)[C@@H](CC(C)C)C(=O)N[C@@H]([C@@H](C)CC)C(=O)N3CC[C@H]3C(=O)N(C)[C@H]3CC(C)=C(C)CN(C3=O)[C@@H](Cc3ccc(C(F)(F)F)cc3)C(=O)N(C)CC(=O)N[C@@H](CCc3cc(F)c(C(F)(F)F)c(F)c3)C(=O)N2C1 [PP1047] as the molecule, how does the “NRAS/KRAS (ratio of KD value with respect to NRAS to KD value with respect to KRAS)” value ([1]; KD ratio, SPR) read?
Answer: C (A compound having a KD ratio of 0.1 or more and less than 3 is denoted as C)

Question: And the “HRAS/KRAS (ratio of KD value with respect to HRAS to KD value with respect to KRAS)” value ([2]; KD ratio, SPR)?
Answer: C (A compound having a KD ratio of 0.1 or more and less than 3 is denoted as C)

Question: Which results are given for CCCO[C@@H]1C[C@H]2C(=O)NC3(CCC3)C(=O)N(C)[C@@H](C3CCCC3)C(=O)N(C)[C@H](C(=O)N3CCOCC3)CC(=O)N(C)[C@@H](CC(C)C)C(=O)N[C@@H]([C@@H](C)CC)C(=O)N(C)CC(=O)N(C)[C@H]3CCCCCN(C3=O)[C@@H](Cc3ccc(C(F)(F)F)cc3)C(=O)N(C)CC(=O)N[C@@H](CCc3cc(F)c(C(F)(F)F)c(F)c3)C(=O)N2C1 [PP1161]?
Answer: NRAS/KRAS (ratio of KD value with respect to NRAS to KD value with respect to KRAS) ([1]; KD ratio, SPR): B (a compound having 3 or more and less than 10 is denoted as B); HRAS/KRAS (ratio of KD value with respect to HRAS to KD value with respect to KRAS) ([2]; KD ratio, SPR): B (a compound having 3 or more and less than 10 is denoted as B)

Question: Which results are given for CCOC[C@H]1C(=O)N[C@@H]([C@@H](C)CC)C(=O)N(C)CC(=O)N(C)[C@H]2C/C=C\CCN(C2=O)[C@@H](Cc2ccc(C(F)(F)F)cc2)C(=O)N(C)CC(=O)N[C@@H](CCc2cc(F)c(C(F)(F)F)c(F)c2)C(=O)N2C[C@H](OCC)C[C@H]2C(=O)NC2(CC(C)(C)C2)C(=O)N(C)[C@@H](CC2CCC2)C(=O)N(C)[C@H](C(=O)N(C)C)CC(=O)N1C [PP2763]?
Answer: NRAS/KRAS (ratio of KD value with respect to GDP-bound NRAS wild-type protein to KD value with respect to KRAS) ([1]; class symbols): A (a compound having 10 or more and less than 20 is denoted as A); HRAS/KRAS (ratio of KD value with respect to GDP-bound HRAS wild-type protein to KD value with respect to KRAS) ([2]; class symbols): A (a compound having 10 or more and less than 20 is denoted as A)

Question: CCCN1C(=O)CN(C)C(=O)CN(C)C(=O)[C@H]([C@@H](C)CC)NC(=O)[C@H](CC(C)C)N(C)C(=O)C[C@@H](C(=O)N2CCOCC2)N(C)C(=O)[C@H](C2CCCC2)N(C)C(=O)C2(CCC2)NC(=O)[C@@H]2CCCN2C(=O)[C@H](CCc2ccc(C(F)(F)F)c(Cl)c2)NC(=O)CN(C)C(=O)[C@@H]1Cc1ccc(C(F)(F)F)cc1 [PP0197] ([NMeL]I[Sar][Sar][NPrPhe(4-CF3)][Sar][hPhe(3-Cl-4-CF3)]P[Ac4c][NMeGly(cPent)][NMeD]-Morpholide; lactam N-11) was tested. Which “NRAS/KRAS (ratio of KD for GDP-bound NRAS wild-type to KD for KRAS)” value ([1]; SPR) did it give?
Answer: B (a compound having 3 or more and less than 10 is denoted as B)

Question: And the “HRAS/KRAS (ratio of KD for GDP-bound HRAS wild-type to KD for KRAS)” value ([2]; SPR)?
Answer: C (A compound having a KD ratio of 0.1 or more and less than 3 is denoted as C)

Question: How did the “NRAS/KRAS (ratio of KD value with respect to GDP-bound NRAS wild-type protein to KD value with respect to KRAS)” value ([1]; SPR) turn out when CCCN1C(=O)CN(C)C(=O)CN(C)C(=O)[C@H]([C@@H](C)CC)NC(=O)[C@H](CC(C)C)N(C)C(=O)C[C@@H](C(=O)N2CCOCC2)N(C)C(=O)[C@H](C2CCCC2)N(C)C(=O)[C@](C)(CC2CCCCC2)NC(=O)[C@@H]2CCCN2C(=O)[C@H](CCc2cc(F)c(C(F)(F)F)c(F)c2)NC(=O)CN(C)C(=O)[C@@H]1Cc1ccc(C(F)(F)F)cc1 [PP0760] ([NMeL]I[Sar][Sar][NPrPhe(4-CF3)][Sar][hPhe(3,5-F2-4-CF3)]P[αMeCha][NMeGly(cPent)][NMeD]-Morpholide; lactam N-11) was run?
Answer: B (a compound having 3 or more and less than 10 is denoted as B)

Question: What about the “HRAS/KRAS (ratio of KD value with respect to GDP-bound HRAS wild-type protein to KD value with respect to KRAS)” value ([2]; SPR) of the same molecule?
Answer: C (A compound having a KD ratio of 0.1 or more and less than 3 is denoted as C)
